Reference: patent publication US4497822A, “Insecticidal N-benzoyl-N'-phenyl-N'-(R-thio)ureas” (Shell Oil Company, priority 1982, dated 1985)
In brackets after ≈: the same amount, converted by molar mass.

Legend:
[1] = Solubility in xylene; assay type: physicochemical; conditions: organic solvent or mixture, o-xylene, 20° C., dark, liquid chromatography
Experimental: To illustrate the improved solubility in a common formulation solvent, xylene, of the compounds according to the invention, solubility tests were carried out with certain of these compounds and closely related compounds known from the literature. The test method is described below.
The compound (200 mg) was equilibrated with solvent (0.5 ml of o-xylene at 20° C. in the dark for 48 hours). After equilibration, the supernatant liquors were removed, centrifuged and then filtered. An aliquot portion of this (0.1 ml) was made up to volume (1 to 100 ml) with acetonitrile and then analyzed against standards by means of liquid chromatography.

[2] = tested on: Spodoptera littoralis larvae; assay: Insecticidal activity, sprayed diet (Test 1 (a)), toxicity vs parathion; assay type: in vivo, Egyptian cotton leafworm (Spodoptera littoralis); conditions: second instar larvae; mortality 7 days after spraying; 50% mortality basis; standard parathion = 100
Experimental: (§1) The insecticidal and ovicidal activities of the compounds of the invention were assessed employing the pests, Egyptian cotton leafworm (Spodoptera littoralis, S.l.), mosquito (Aedes aegypti, A.a.) and eggs of Spodoptera littoralis, S.l.ov.
(§2) The test methods used for each species are described below. In each case the tests were conducted under normal insectary conditions (28° C.[…]; fluctuating light and humidity).
(§3) In each instance, the toxicity of the compound of the invention was compared to that of a standard pesticide (parathion), its relative toxicity then being expressed in terms of the relationship between the amount of compound of the invention and the amount of the standard pesticide required to produce the same percentage (50%) of mortality in the test insect. By assigning the standard pesticide an arbitrary rating of 100, the toxicities of the compounds of the invention were expressed in terms of the toxicity indices, which compares the toxicity of the compounds of the invention with that of the standard pesticide.
(a) Spodoptera littoralis--A solution or suspension of the test compound was made up over a range of concentrations in 10% acetone/water containing 0.025% Triton X100 (as surfactant). These solutions were sprayed using a logarithmic spraying machine onto petri dishes containing a nutritious diet on which the Spodoptera littoralis larvae had been reared. When the spray deposit had dried each dish was infested with 10 second instar larvae. Mortality assessments were made 7 days after spraying.

[3] = tested on: Aedes aegypti larvae; assay: Insecticidal activity, larvae in treated water (Test 1 (b)), toxicity vs parathion; assay type: in vivo, mosquito (Aedes aegypti); set-up: key: Toxicity Index: parathion = 100; 200 = twice as active, 50 = half; conditions: early fourth instar larvae; final mortality when all larvae emerged as adults or died; 50% mortality basis; standard parathion = 100
Experimental: as §1, §2
as §3, with “pesticide. That is to say, a test compound having a Toxicity Index of 50 would be half as active, while one having a Toxicity Index of 200 would be twice as active as the standard pesticide.” for “pesticide.”
(b) Aedes aegypti--Several solutions of the test compound of varying concentration were prepared in acetone. 100 microliter quantities were added to 100 milliliters of tap water, the acetone being allowed to evaporate off. Ten early fourth instar larvae were placed in the test solution; after 48 hours the (surviving) larvae were fed with animal feed pellets, and the final percentage mortality assessed when all the larvae had either pupated and emerged as adults or died.

[4] = tested on: eggs of Spodoptera littoralis; assay: Ovicidal activity, sprayed eggs (Test 1 (c)), toxicity vs parathion; assay type: in vivo, Egyptian cotton leafworm (Spodoptera littoralis); conditions: eggs less than 24 hours old; approximately five days; 50% mortality basis; standard parathion = 100
Experimental: as §1, §2
as §3, with “pesticide. That is to say, a test compound having a Toxicity Index of 50 would be half as active, while one having a Toxicity Index of 200 would be twice as active as the standard pesticide.” for “pesticide.”
(c) Spodoptera littoralis (ovicide)--Solutions as described in (a) above were prepared. Eggs less than 24 hours old were obtained as follows. Adult Spodoptera littoralis were held in large plastic cylinders containing blotting paper on which the moths laid their batches of eggs. Egg batches containing approximately 60-70 eggs were cut from the blotting paper with a 1 cm surround. These were placed, eggs uppermost, on filter paper in the deeper half of 5 cm disposable petri dishes and each batch of eggs was then sprayed with a different test solution or the control solution. The dishes were covered until the control eggs had hatched, approximately five days. The percentage ovicidal mortality was then calculated.

SMILES	solubility at 48 h [1] [µg/mL]	Toxicity Index S.l. [2]	Toxicity Index A.a. [3]	Toxicity Index S.l.ov. [4]
O=C(NC(=O)c1ccccc1Cl)Nc1ccc(OC(F)(F)F)cc1 [1-(4-trifluoromethoxy-phenyl)-3-(2-chloro-benzoyl)-urea, reference compound]	2300 (≈ 6.41 mM)	–	–	–
O=C(NC(=O)N(Sc1ccccc1[N+](=O)[O-])c1ccc(OC(F)(F)F)cc1)c1ccccc1Cl [Example 1, 2-Chloro-N-[[[4-(trifluoromethoxy)phenyl]-N-[(2-nitrophenyl)thio]amino]carbonyl]benzamide]	3700 (≈ 7.23 mM)	750	220	210
O=C(NC(=O)c1c(F)cccc1F)Nc1ccc(Oc2ccc(C(F)(F)F)cc2Cl)cc1 [1-(4-(4-trifluoromethyl-2-chlorophenoxy)phenyl)-3-(2,6-difluorobenzoyl)urea, reference compound]	5700 (≈ 12.1 mM)	–	–	–
CC(C)(C)c1ccc(SN(C(=O)NC(=O)c2c(F)cccc2F)c2ccc(C(F)(F)F)cc2)cc1 [Example 26]	–	580	82	8
O=C(NC(=O)N(Sc1ccccc1[N+](=O)[O-])c1ccc(Oc2ccc(C(F)(F)F)cc2Cl)cc1)c1c(F)cccc1F [Example 3]	18800 (≈ 30.1 mM)	4500	–	0
Cc1ccccc1SN(C(=O)NC(=O)c1ccccc1Cl)c1ccc(Oc2ccc(C(F)(F)F)cc2Cl)cc1 [Example 31]	–	960	240	0
O=C(NC(=O)N(Sc1ccccc1)c1ccc(Cl)cc1)c1c(F)cccc1F [Example 8]	–	16	22	480
O=C(NC(=O)N(SC(Cl)(Cl)Cl)c1ccc(OC(F)(F)F)cc1)c1ccccc1Cl [Example 25]	–	140	28	1300
Cc1ccccc1SN(C(=O)NC(=O)c1ccccc1Cl)c1ccc(OC(F)(F)F)cc1 [Example 4, 2-Chloro-N-[[[4-(trifluoromethoxy)phenyl]-N-[(2-methylphenyl)thio]amino]carbonyl]benzamide]	–	110	77	2200
CC(C)(C)c1ccc(SN(C(=O)NC(=O)c2c(F)cccc2F)c2ccc(Cl)cc2)cc1 [Example 36]	–	42	22	0
